# Laboratory results as given in patent publication US3968100A, “Guanidio derivatives of kasugamycin and their production” (Zaidan Hojin Biseibutsu Kagaku Kenkyu Kai, priority 1972, dated 1976).
# Where two headings read alike, the source gives them in different places.
# Columns and labels:
# [1] = test system: Klebsiella pneumoniae ATCC 10031; assay: antibacterial spectrum by the broth dilution method (MIC); assay type: cell-based; details: ATCC10031; Klebsiella pneumoniae ATCC 10031, broth dilution; read-out: Minimum inhibitory concentration
# Experimental: (§1) The antibacterial spectrum of the new guanidino derivatives of kasugamycin was determined by the broth dilution method and shown in Table 2 below.
# Escherichia coli NIHJ = assay: as above; assay type: cell-based; details: read-out: Minimum inhibitory concentration
# Experimental: as §1
# [2] = test system: Bacillus subtilis ATCC 6633; assay: as above; assay type: cell-based; details: ATCC6633; Bacillus subtilis ATCC 6633, broth dilution; read-out: Minimum inhibitory concentration
# Experimental: as §1
# Escherichia coli K-12 = assay: as above; assay type: cell-based; details: K12; Escherichia coli K-12, broth dilution; read-out: Minimum inhibitory concentration
# Experimental: as §1
# Proteus vulgaris OX 19 = assay: as above; assay type: cell-based; details: OX19; Proteus vulgaris OX 19, broth dilution; read-out: Minimum inhibitory concentration
# Experimental: as §1
# [3] = test system: Pseudomonas fluorescence NIHJB-24; assay: as above; assay type: cell-based
# Experimental: as §1
# Salmonella paratyphi A = assay: as above; assay type: cell-based; details: Salmonella enterica, read-out: Minimum inhibitory concentration
# Experimental: as §1
# [4] = test system: Staphylococcus aureus 6538P; assay: as above; assay type: cell-based; details: read-out: Minimum inhibitory concentration
# Experimental: as §1
# Shigella sonnei 191-66 = assay: as above; assay type: cell-based; details: 19166; Shigella sonnei 191-66, broth dilution; read-out: Minimum inhibitory concentration
# Experimental: as §1
# mice = assay: acute toxicity to mice injected intravenously; assay type: in vivo; details: 350 mg/kg intravenously, five mice
# From the text: (§2) The process of Example 3 was repeated using propylenediamine and butylenediamine, respectively in stead of the ethylenediamine. There were obtained 1D-3-O-{2-amino-4-[(2-aminopropyl)-guanidinol]-2,3,4,6-tetradeoxy-α- D-arabino-hexopyranosyl}-chiro-inositol and 1D-3-O-{2-amino-4-[(2-aminobutyl)-guanidinol]-2,3,4,6-tetradeoxy-α-D-arabino-hexopyranosyl]-chiro-inositol in yields of 31.2% and24.6%, respectively.
# [5] = test system: Pseudomonas aeruginosa No. 12; assay: protection test against infection in mice of Pseudomonas aeruginosa; assay type: in vivo, mice (dd strain) infected with Pseudomonas aeruginosa No. 12; details: for ED50: NO.12, ip, Pseudomonas aeruginosa, read-out: curative dose (CD50)
# Experimental: The inoculum size of Pesudomonas aeruginosa No.12, which was 10 times of LD50 (3.1 × 10^8 cells/ml, 0.25 ml/mouse), was inoculated intraperitoneally to dd strain of mice (19-21 g body weight), and the treatment with the aforesaid kasugamycin-KG-8 was intraperitoneally injected at 0 and 6 hours after the infection.
# [6] = test system: Pseudomonas fluorescens NIHJ B-254; assay: activity of eluted fractions against test organism; assay type: cell-based; details: purified white powder
# Experimental: The isourea derivative dihydrochloride of kasugamycin (500 mg) prepared in Example 2 was dissolved into 10% ethylenediamine in methanol (w/w). The solution was allowed to stand at room temperature for 24 hours, diluted with 80 ml of isopropanol and concentrated to one-half volume under reduced pressure. The solid deposited by concentration was filtered, washed with ethyl ether and dried to give 457 mg of a crude guanidino derivative of kasugamycin as a white powder. The crude powder was dissolved in 4.5 ml of water and adsorbed on a column containing 12 ml of a cation-exchange resin Amberlite IRC-50(NH4 -type). The column was washed with water and followed with 0.3N NH4 OH, and developed with 0.3N H2 SO4. The activities of each eluted fraction were determined using Pseudomonas fluorescens NIHJ B-254 as a test organism. […] And the product formed crystals as the salt of p-hydroxyazobenzene-p'-sulfonic acid.
# [7] = acute toxicity to mice injected intravenously; assay type: in vivo; details: mouse, in vivo, iv
# From the text: as §2
# chicks = assay: growth promoting effect on chicks; assay type: in vivo, chicks of broiler type (White Rock × White Cornish); design: Weight gain: unit not given here; details: 10 g/ton in ration; for Index of weight gain: control = 100
# Experimental: Growth promoting effect of kasugamycin-KG-8 on chicks is tested below. Kasugamycin-KG-8 was mixed uniformly with ration and administered to chicks to examine its effect on growth promotion and improvement of feed utilization. Eighty chicks of broiler type (White Rock × White Cornish) were assigned to two lots of 40 chicks each and for 8 weeks. Lot 1 (Control): Supplied only with basal ration. Lot 2: Supplied with basal ration + kasugamycin-KG-8 10 g/ton. As the basal ration was used one of standard composition. Chick rearing was managed according to the usual method. Ration and drinking water were supplied ad libitum. Tabel 5 indicates beneficial effect of kasugamycin-KG-8 on chick growth promotion.
# swine = assay: growth promoting effect on swine; assay type: in vivo; details: pigs, 10 g/ton in ration, 7 weeks
# From the text: Growth promoting effect of kasugamycin-KG-8 on swine is described below. Kasugamycin-KG-8 was mixed uniformly with ration and administered to pigs to examine its effect on growth promotion and improvement of feed utilization. Fourty-eight young pigs of 1 month old were assigned to two lots of […] pigs each and fed for 7 weeks. Lot 1 (Control): Supplied only with basal ration. Lot 2: Supplied with basal ration + kasugamycin-KG-8 10 g/ton. As the basal ration, one of standard composition was used. Swine raising was managed according to usual method. Each lot of […] pigs were fed in a concrete pen. Ration and drinking water were supplied ad libitum. The index of weight gain indicates beneficial effect of kasugamycin-KG-8 on swing growth promotion.
# solubility = assay type: physicochemical
# [8] = NIHJB24, Pseudomonas fluorescence NIHJB-24, broth dilution, read-out: Minimum inhibitory concentration
compound,measurement,setting,value
"C[C@H]1O[C@H](O[C@H]2[C@H](O)[C@@H](O)[C@@H](O)[C@H](O)[C@@H]2O)[C@@H](N)C[C@@H]1NC(=N)NCCCN [R1 =--(CH2)3 NH2, R2 =H]",MIC,[1],0.2 µg/mL
same,MIC,Escherichia coli NIHJ,0.39 µg/mL
C[C@H]1O[C@H](O[C@H]2[C@H](O)[C@@H](O)[C@@H](O)[C@H](O)[C@@H]2O)[C@@H](N)C[C@@H]1NC(=N)NCCS(=O)(=O)O [Compound 8],MIC,[1],> 100 µg/mL
same,MIC,Escherichia coli NIHJ,> 100 µg/mL
same,MIC,[2],100 µg/mL
same,MIC,Escherichia coli K-12,> 100 µg/mL
same,MIC,Proteus vulgaris OX 19,> 100 µg/mL
same,MIC,[3]; [8],50 µg/mL
same,MIC,Salmonella paratyphi A,50 µg/mL
same,MIC,[4],12.5 µg/mL
same,MIC,Shigella sonnei 191-66,> 100 µg/mL
"C[C@H]1O[C@H](O[C@H]2[C@H](O)[C@@H](O)[C@@H](O)[C@H](O)[C@@H]2O)[C@@H](N)C[C@@H]1NC(=N)NCCCCN [Example 5, 1D-3-O-{2-amino-4-[(2-aminobutyl)-guanidinol]-2,3,4,6-tetradeoxy-α-D-arabino-hexopyranosyl]-chiro-inositol]",deaths after intravenous injection,mice,one of them was dead
"C[C@H]1O[C@H](O[C@H]2[C@H](O)[C@@H](O)[C@@H](O)[C@H](O)[C@@H]2O)[C@@H](N)C[C@@H]1NC(=N)NCCN [kasugamycin-KG-8, 1D-3-O-{2-amino-4-[(2-aminoethyl)-guanidino]-2,3,4,6-tetradeoxy-α-D-arabino-hexopyranosyl}-chiro-inositol]",Number survived/Number infected,"[5]; 0.031 mg/mouse at one time, day 0 after infection",0/4
same,Number survived/Number infected,"[5]; 0.031 mg/mouse at one time, day 1 after infection",4/4
same,Number survived/Number infected,"[5]; 0.031 mg/mouse at one time, day 7 after infection",4/4
same,Number survived/Number infected,"[5]; 0.063 mg/mouse at one time, day 0 after infection",0/4
same,Number survived/Number infected,"[5]; 0.063 mg/mouse at one time, day 1 after infection",1/4
same,Number survived/Number infected,"[5]; 0.063 mg/mouse at one time, day 2 after infection",2/4
same,Number survived/Number infected,"[5]; 0.063 mg/mouse at one time, day 7 after infection",2/4
same,Number survived/Number infected,"[5]; 0.125 mg/mouse at one time, day 0 after infection",0/4
same,Number survived/Number infected,"[5]; 0.125 mg/mouse at one time, day 3 after infection",1/4
same,Number survived/Number infected,"[5]; 0.125 mg/mouse at one time, day 7 after infection",1/4
same,Number survived/Number infected,"[5]; 0.25 mg/mouse at one time, day 0 after infection",0/4
same,Number survived/Number infected,"[5]; 0.25 mg/mouse at one time, day 7 after infection",0/4
same,Number survived/Number infected,"[5]; 0.5 mg/mouse at one time, day 0 after infection",0/4
same,Number survived/Number infected,"[5]; 0.5 mg/mouse at one time, day 7 after infection",0/4
same,Number survived/Number infected,"[5]; 1.0 mg/mouse at one time, day 0 after infection",0/4
same,Number survived/Number infected,"[5]; 1.0 mg/mouse at one time, day 7 after infection",0/4
same,Number survived/Number infected,"[5]; 2.0 mg/mouse at one time, day 0 after infection",0/4
same,Number survived/Number infected,"[5]; 2.0 mg/mouse at one time, day 7 after infection",0/4
same,ED50,"[5]; mice, intraperitoneal at 0 and 6 hours after infection",3.13 mg/kg
same,activity relative to kasugamycin,[6],three times active than kasugamycin
same,MIC,[1],0.1 µg/mL
same,MIC,Escherichia coli NIHJ,0.78 µg/mL
same,MIC,[2],0.39 µg/mL
same,MIC,Escherichia coli K-12,0.39 µg/mL
same,MIC,Proteus vulgaris OX 19,0.78 µg/mL
same,MIC,"[3]; Pseudomonas, NIHJB24, read-out: Minimum inhibitory concentration",1.56 µg/mL
same,MIC,Salmonella paratyphi A,0.2 µg/mL
same,MIC,[4],0.78 µg/mL
same,MIC,Shigella sonnei 191-66,1.56 µg/mL
same,LD50,[7],380 mg/kg
same,Weight gain,"chicks; grower period for 4 weeks, control 871.8",957.8
same,Index of weight gain,chicks; grower period for 4 weeks,109.9
same,Feed conversion,"chicks; grower period, control 3.65",3.56
same,Weight gain,"chicks; starter period of 4 weeks, control 458.4",496.2
same,Index of weight gain,chicks; starter period of 4 weeks,108.2
same,Feed conversion,"chicks; starter period, control 2.15",2.15
same,Weight gain,"chicks; total period through 8 weeks, control 1330.2",1454.0
same,Index of weight gain,chicks; total period through 8 weeks,109.3
same,Feed conversion,"chicks; total period, control 3.12",3.07
same,Feed conversion,swine; control 3.05,2.94
same,Weight gain,swine; control 8.20,9.09 kg
same,Index of weight gain,swine; control = 100,110.9
same,solubility,solubility; other organic solvents,scarcely soluble or insoluble in other organic solvents
same,solubility,"solubility; water, dimethylformamide and low alcohols","soluble in water, dimethylformamide and low alcohols"
C[C@H]1O[C@H](O[C@H]2[C@H](O)[C@@H](O)[C@@H](O)[C@H](O)[C@@H]2O)[C@@H](N)C[C@@H]1NC(=N)NCCCCN [Compound 4],MIC,[1],1.56 µg/mL
same,MIC,Escherichia coli NIHJ,12.5 µg/mL
same,MIC,[2],0.78 µg/mL
same,MIC,Escherichia coli K-12,1.56 µg/mL
same,MIC,Proteus vulgaris OX 19,1.56 µg/mL
same,MIC,[3]; [8],3.13 µg/mL
same,MIC,Salmonella paratyphi A,0.78 µg/mL
same,MIC,[4],0.2 µg/mL
same,MIC,Shigella sonnei 191-66,6.25 µg/mL
C[C@H]1O[C@H](O[C@H]2[C@H](O)[C@@H](O)[C@@H](O)[C@H](O)[C@@H]2O)[C@@H](N)C[C@@H]1NC(=N)C(=O)O [Kasugamycin],ED50,[5],35.5 mg/kg
same,MIC,[1],50 µg/mL
same,MIC,Escherichia coli NIHJ,100 µg/mL
same,MIC,[2],> 100 µg/mL
same,MIC,Escherichia coli K-12,100 µg/mL
same,MIC,Proteus vulgaris OX 19,100 µg/mL
same,MIC,[3]; [8],3.13 µg/mL
same,MIC,Salmonella paratyphi A,50 µg/mL
same,MIC,[4],50 µg/mL
same,MIC,Shigella sonnei 191-66,> 100 µg/mL
"CC(N)CNC(=N)NC1CC(N)C(OC2C(O)C(O)C(O)C(O)C2O)OC1C [Example 4, 1D-3-O-{2-amino-4-[(2-aminopropyl)-guanidinol]-2,3,4,6-tetradeoxy-α-D-arabino-hexopyranosyl}-chiro-inositol]",deaths after intravenous injection,mice,none of them was dead
CNCCN(C)C(=N)N[C@H]1C[C@H](N)[C@@H](O[C@H]2[C@H](O)[C@@H](O)[C@@H](O)[C@H](O)[C@@H]2O)O[C@@H]1C [Compound 3],MIC,[1],100 µg/mL
same,MIC,Escherichia coli NIHJ,100 µg/mL
same,MIC,[2],25 µg/mL
same,MIC,Escherichia coli K-12,100 µg/mL
same,MIC,Proteus vulgaris OX 19,50 µg/mL
same,MIC,[3]; [8],50 µg/mL
same,MIC,Salmonella paratyphi A,50 µg/mL
same,MIC,[4],50 µg/mL
same,MIC,Shigella sonnei 191-66,100 µg/mL
